# According to US9504255B2, “Physical antimicrobial method” (priority 2012, dated 2016):
# How the values were obtained:
# Escherichia coli = assay: Drug-resistance experiment on pathogens isolated from the Department of Burns (NCCLS 1997); assay type: cell-based; conditions: clinical isolates
# Acinetobacter = assay: as above; assay type: cell-based; conditions: clinical isolates
# Pseudomonas aeruginosa = assay: as above; assay type: cell-based; conditions: clinical isolates
# aerogenes = assay: as above; assay type: cell-based, Enterobacter aerogenes; conditions: clinical isolates
# Enterobacter cloacae = assay: as above; assay type: cell-based; conditions: clinical isolates
# [1] = system: patients clinically diagnosed with impetigo; assay: Experiment of treatment of impetigo; assay type: in vivo, human; conditions: to the affected area 2 times a day, for 7 days
# Description: 1652 patients clinically diagnosed with impetigo by the Department of Dermatology in the hospital were chosen and randomly divided into experimental group (n=1032) and control group (n=620). The experimental group was treated with the antimicrobial composition of the invention to the affected area, and the control group was treated with mupirocin, 2 times a day, for 7 days.
# MSSA = assay: Drug-resistance experiment on pathogens isolated from the Department of Burns (NCCLS 1997); assay type: cell-based, Staphylococcus aureus; conditions: clinical isolates
Compound,resistance rate of Escherichia coli (Escherichia coli) [%],resistance rate of Acinetobacter (Acinetobacter) [%],resistance rate of Pseudomonas aeruginosa (Pseudomonas aeruginosa) [%],further results
gentamicin,40.9,18.9,35.3,resistance rate of aerogenes (aerogenes): 8.2%; resistance rate of Enterobacter cloacae (Enterobacter cloacae): 28.1%
C/C(=C\C(=O)OCCCCCCCCC(=O)O)C[C@@H]1OC[C@H](C[C@@H]2O[C@H]2[C@@H](C)[C@H](C)O)[C@@H](O)[C@H]1O [mupirocin],,,,effective rate [1]: 85%
piperazine amoxicillin,,,34.1,
CC1(C)S[C@@H]2[C@H](NC(=O)[C@H](N)c3ccccc3)C(=O)N2[C@H]1C(=O)O [ampicillin],80.1,,,
Cc1nnc(SCC2=C(C(=O)O)N3C(=O)[C@@H](NC(=O)Cn4cnnn4)[C@H]3SC2)s1 [cefazolin],40.0,,,resistance rate of aerogenes (aerogenes): 79.3%; resistance rate of Enterobacter cloacae (Enterobacter cloacae): 89.3%
penicillin,,,,resistance rate of MSSA (MSSA): 87.0%
CCN1CCN(C(=O)N[C@@H](C(=O)N[C@@H]2C(=O)N3[C@@H]2SC(C)(C)[C@@H]3C(=O)O)c2ccccc2)C(=O)C1=O [piperacillin],,93.3,,
CC(C)(O/N=C(\C(=O)N[C@@H]1C(=O)N2C(C(=O)[O-])=C(C[n+]3ccccc3)CS[C@H]12)c1csc(N)n1)C(=O)O [ceftazidime],,21.2,21.7,
